# Assay results: patent publication US20250241838A1, “COSMETIC COMPOSITION FOR WITH ANTI-GLYCATION EFFECT FOR ENHANCING SKIN RESISTANCE TO AGING” (L'OREAL, priority 2024, published 2025)
# Entries after “also recorded” stand apart in the source; their conditions may differ. Read-outs that look alike come from different tables or passages of the source.
# Tested on: BSA (bovine serum albumin)
# Experiment: In vitro/in tubo glycation study: BSA + D-ribose, fluorescence intensity
# Type: biochemical
# Experimental: A study was conducted in vitro/in tubo to evaluate if the ingredients of the inventive composition have anti-glycation effects in an in tubo environment.
# The in tubo experiments were conducted to evaluate glycation of BSA (bovine serum albumin) under control conditions and with exposure to an embodiment of the inventive composition. Samples were prepared, including inventives, comparatives, baseline, and positive and negative controls.
# A test plate was prepared with discrete wells for receiving each of the test compositions. Solutions representing the active ingredient concentrations listed under “Ingredient” in Table 3, below, were added to a well containing BSA+D-ribose (the Indicator Solution) and PBS. The total amount of Test Solutions added for the inventive compositions was always the same for all tests-25 microliters-5 microliters of each Test Solution (Ingredient) per well. PBS was used as the solvent for the Test Solution. Plates were prepared in triplicate.
# Tested Compositions: Blank: PBS+BSA, Negative control: PBS+BSA+D-ribose, Positive control: PBS+BSA+D-ribose+Aminoguanidine, Five Inventive […]
# Samples were plated in triplicate and readings taken at the indicated wavelength at day 1 and day 14.
# Evaluations of Fluorescent Intensity were made at ex 370 nm/em 440 nm
# Samples were evaluated at time intervals of 0 days, 3 days, 14 Days, 21 Days. The main purpose of incorporating time intervals is to provide sufficient duration for capturing the anti-glycation effect. It is crucial to build in multiple time points to adequately capture the anti-glycation effects since they can vary depending on the specific ingredients used.
# Magnitude of fluorescence intensity is positively indicative of extent of glycation. Glycation is expected to be maximal with negative control (BSA plus D-ribose), while glycation of positive control with known antiglycation agent, Aminoguanidine, is expected to be reduced relative to negative control.
# Evaluation of anti-glycation effect of individual ingredients: each of Activated C, Dandelion Extract, Caffeine, Lavender Oil, and Vitamin E (5 microliter quantities) were plated with 245 microliter of [PBS+BSA+D-ribose]. Concentrations of each ingredient added to the wells were as follows Activated C (100%, 50%, 10%, 5% and 1%), Dandelion Extract (100%, 50%, 30%, 15% and 3%), Caffeine (2%, 1.5%, 1%, 0.5% and 0.1%), Lavender Oil (100%, 50%, 0.15%, 0.08% and 0.15%), and Vitamin E (100%, 50%, 1%, 0.5% and 0.1%).
# [1] = each ingredient alone, 5 microliter plated with 245 microliter PBS+BSA+D-ribose, five concentrations each, data not shown
molecule,measurement,setting,value
"N=C(N)NN [Positive control, Aminoguanidine]",Fluorescence intensity,"day 14 readings, ex 370 nm/em 440 nm, PBS+BSA+D-ribose, intensity positively indicative of extent of glycation",2.921
same,Percent reduction in glycation (%),"day 14 readings, relative to negative control (PBS+BSA+D-ribose)",23%
Cn1c(=O)c2c(ncn2C)n(C)c1=O [Caffeine],anti-glycation effect of individual ingredients,,no glycation effect; also recorded: no significant reduction in glycation
tocopherol [Vitamin E],anti-glycation effect of individual ingredients,[1],no glycation effect
same,anti-glycation effect of individual ingredients,"each ingredient alone, 5 microliter plated with 245 microliter PBS+BSA+D-ribose, five concentrations each, data not shown, listed as vitamin E",no significant reduction in glycation
"CCOC1=C(O)C(=O)O[C@@H]1[C@@H](O)CO [Activated C, 3-O-ETHYL ASCORBIC ACID]",anti-glycation effect of individual ingredients,[1],glycation effect only at high levels
same,anti-glycation effect of individual ingredients,"each ingredient alone, 5 microliter plated with 245 microliter PBS+BSA+D-ribose, five concentrations each, data not shown, listed as Ascorbic acid",reduction of glycation at high doses only
